The source of these data is patent US20190225650A1, “PEPTIDOMIMETIC MACROCYCLES AND USE THEREOF IN REGULATING HIF1ALPHA” (AILERON THERAPEUTICS, INC., priority 2013, published 2019).

Each structure is given as a SMILES string. Bridge positions count the residues as written; N and C are the ends. Square brackets hold non-standard residues; d marks the D form. Peptide text beside a SMILES is read from it. R8 = C=CCCCCCC[C@@](C)(N)C(=O)O; S5 = C=CCCC[C@](C)(N)C(=O)O; Nle = CCCC[C@H](N)C(=O)O; Dap = NC[C@H](N)C(=O)O

The test system of this test is HRE-bla ME-180 cells. The test is described as follows: Reporter gene assay (HRE-bla ME-180 HIF reporter, GeneBLAzer). The note with it: for EC50: 24 hour normoxia. Type of test: cell-based, human. Summed up: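 A FRET β-lactamase readout of HIF transcription was used. After compound treatment in 0.3% DMSO/media under normoxic conditions, 20 μl of 6× LiveBLAzer-FRET B/G (CCF4-AM) substrate was added. Plates sat 3 hr at room temperature in the dark and were read at 409 Ex/460Em and 409Ex/530Em on a Synergy 2. Inhibition was compared against DMSO vehicle controls, with chetomin as positive control.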

For the molecule `CCCC[C@H](NC(=O)[C@]1(C)CCCC=CCCC[C@](C)(NC(=O)[C@H](CC(=O)O)NC(=O)[C@H](CC(C)C)NC(=O)[C@@H](NC(=O)[C@H](CCC(=O)O)NC(=O)[C@H](CCC(=O)O)NC(=O)[C@H](CC(=O)O)NC(=O)[C@@H](NC(=O)[C@H](Cc2ccccc2)NC(C)=O)[C@@H](C)CC)C(C)C)C(=O)N[C@@H](CC(C)C)C(=O)N[C@@H](C(C)C)C(=O)N[C@@H]([C@@H](C)CC)C(=O)N1)C(=O)N[C@@H](C)C(=O)N[C@@H](CC(C)C)C(=O)N[C@@H](CC(=O)O)C(=O)N[C@@H](CCCNC(=N)N)C(=O)N[C@H](C(N)=O)[C@@H](C)CC` [SP-34] (Ac-FIDEEVLD[S5]LVI[S5][Nle]ALDRI-NH2; staple 9-13), the “18 h Avg % max inhibition at top conc (HIF Rptr-24 hrs normoxia) (μM)” value (shortened to “18 h Avg % max inhibition at top conc”) was “++++ (≥50: ++++)” and the EC50 (usually the concentration at which the effect is half-maximal) fell in the range of 5 to 15 µM.

Regarding `CCCC[C@H](NC(=O)[C@H](CC(C)C)NC(=O)[C@@H](NC(=O)[C@H](CCC(=O)O)NC(=O)[C@H](CCC(=O)O)NC(=O)[C@H](CN)NC(=O)[C@@H](NC(=O)[C@H](Cc1ccccc1)NC(C)=O)[C@@H](C)CC)C(C)C)C(=O)N[C@@]1(C)CCCC=CCCC[C@@](C)(C(=O)N[C@@H](CCCC)C(=O)N[C@@H](C)C(=O)N[C@@H](CC(C)C)C(=O)N[C@@H](CC(=O)O)C(=O)N[C@@H](CCCNC(=N)N)C(=O)N[C@H](C(N)=O)[C@@H](C)CC)NC(=O)[C@H]([C@@H](C)CC)NC(=O)[C@H](C(C)C)NC(=O)[C@H](CC(C)C)NC1=O` [SP-62] (Ac-FI[Dap]EEVL[Nle][S5]LVI[S5][Nle]ALDRI-NH2; staple 9-13), the “18 h Avg % max inhibition at top conc” value was “++ (≤10 but <25: ++)” and the EC50 is more than 30 µM.

`CCCC[C@H](NC(=O)[C@H](CC(C)C)NC(=O)[C@@H](NC(=O)[C@H](CCC(=O)O)NC(=O)[C@H](CCC(=O)O)NC(=O)[C@H](CC(=O)O)NC(=O)[C@H](CO)NC(=O)[C@H](Cc1ccccc1)NC(C)=O)C(C)C)C(=O)N[C@@]1(C)CCCC=CCCC[C@@](C)(C(=O)N[C@@H](CCCC)C(=O)N[C@@H](C)C(=O)N[C@@H](CC(C)C)C(=O)N[C@@H](CC(=O)O)C(=O)N[C@@H](CCCNC(=N)N)C(=O)N[C@H](C(N)=O)[C@@H](C)CC)NC(=O)[C@H]([C@@H](C)CC)NC(=O)[C@H](C(C)C)NC(=O)[C@H](CC(C)C)NC1=O` [SP-45] (Ac-FSDEEVL[Nle][S5]LVI[S5][Nle]ALDRI-NH2; staple 9-13): the “18 h Avg % max inhibition at top conc” value is reported as “++ (≤10 but <25: ++)” and the EC50 is more than 30 µM.

On to `CC[C@H](C)[C@H](NC(=O)[C@H](Cc1ccccc1)NC(C)=O)C(=O)N[C@@H](CC(=O)O)C(=O)N[C@@H](CCC(=O)O)C(=O)N[C@]1(C)CCCCCCC=CCCC[C@@](C)(C(=O)N[C@@H](CCC(=O)O)C(=O)N[C@@H](CCSC)C(=O)NCC(=O)N[C@@H](CC(C)C)C(=O)N[C@@H](CC(=O)O)C(=O)N[C@@H](CCCNC(=N)N)C(=O)N[C@H](C(=O)N[C@@H](CCCCN)C(=O)N[C@@H](CCC(=O)O)C(=O)N[C@@H](CC(C)C)C(=O)N2CCC[C@H]2C(=O)N[C@@H](CCC(=O)O)C(=O)N[C@@H](CC(C)C)C(=O)N[C@@H](Cc2c[nH]c3ccccc23)C(=O)N[C@@H](CC(C)C)C(N)=O)[C@@H](C)CC)NC(=O)[C@H](C(C)C)NC(=O)[C@H](CC(C)C)NC(=O)[C@H](CO)NC(=O)[C@H](CCSC)NC(=O)[C@H](CC(C)C)NC(=O)[C@H](C(C)C)NC1=O` [SP-82] (Ac-FIDE[R8]VLMSLV[S5]EMGLDRIKELPELWL-NH2; staple 5-12), for which the “18 h Avg % max inhibition at top conc” value is reported as “+ (<10: +)” and the EC50 was more than 30 µM.

For the molecule `CCCC[C@H](NC(=O)[C@H](CC(C)C)NC(=O)[C@@H](NC(=O)[C@H](CCC(=O)O)NC(=O)[C@H](CCC(=O)O)NC(=O)[C@H](C)NC(=O)[C@@H](NC(=O)[C@H](Cc1ccccc1)NC(C)=O)[C@@H](C)CC)C(C)C)C(=O)N[C@@]1(C)CCCC=CCCC[C@@](C)(C(=O)N[C@@H](CCCC)C(=O)N[C@@H](C)C(=O)N[C@@H](CC(C)C)C(=O)N[C@@H](CC(=O)O)C(=O)N[C@@H](CCCNC(=N)N)C(=O)N[C@H](C(N)=O)[C@@H](C)CC)NC(=O)[C@H]([C@@H](C)CC)NC(=O)[C@H](C(C)C)NC(=O)[C@H](CC(C)C)NC1=O` [SP-11] (Ac-FIAEEVL[Nle][S5]LVI[S5][Nle]ALDRI-NH2; staple 9-13), the “18 h Avg % max inhibition at top conc” value is “++++ (≥50: ++++)” and the EC50 fell in the range of 5 to 15 µM.

Consider `CCCC[C@H](NC(=O)[C@H](CC(C)C)NC(=O)[C@H](C)NC(=O)[C@H](CCC(=O)O)NC(=O)[C@H](CCC(=O)O)NC(=O)[C@H](CC(=O)O)NC(=O)[C@@H](NC(=O)[C@H](Cc1ccccc1)NC(C)=O)[C@@H](C)CC)C(=O)N[C@@]1(C)CCCC=CCCC[C@@](C)(C(=O)N[C@@H](CCCC)C(=O)N[C@@H](C)C(=O)N[C@@H](CC(C)C)C(=O)N[C@@H](CC(=O)O)C(=O)N[C@@H](CCCNC(=N)N)C(=O)N[C@H](C(N)=O)[C@@H](C)CC)NC(=O)[C@H]([C@@H](C)CC)NC(=O)[C@H](C(C)C)NC(=O)[C@H](CC(C)C)NC1=O` [SP-14] (Ac-FIDEEAL[Nle][S5]LVI[S5][Nle]ALDRI-NH2; staple 9-13), for which the “18 h Avg % max inhibition at top conc” value is “++++ (≥50: ++++)” and the EC50 fell in the range of 5 to 15 µM.

For the molecule `CCCC[C@H](NC(=O)[C@H](CC(C)C)NC(=O)[C@@H](NC(=O)[C@H](CN)NC(=O)[C@H](CCC(=O)O)NC(=O)[C@H](CC(=O)O)NC(=O)[C@@H](NC(=O)[C@H](Cc1ccccc1)NC(C)=O)[C@@H](C)CC)C(C)C)C(=O)N[C@@]1(C)CCCC=CCCC[C@@](C)(C(=O)N[C@@H](CCCC)C(=O)N[C@@H](C)C(=O)N[C@@H](CC(C)C)C(=O)N[C@@H](CC(=O)O)C(=O)N[C@@H](CCCNC(=N)N)C(=O)N[C@H](C(N)=O)[C@@H](C)CC)NC(=O)[C@H]([C@@H](C)CC)NC(=O)[C@H](C(C)C)NC(=O)[C@H](CC(C)C)NC1=O` [SP-63] (Ac-FIDE[Dap]VL[Nle][S5]LVI[S5][Nle]ALDRI-NH2; staple 9-13), the “18 h Avg % max inhibition at top conc” value is on record as “+++ (≤25 but <50: +++)” and the EC50 was 5 to 15 µM.

Turning to `CCCC[C@H](NC(=O)[C@H](CC(C)C)NC(=O)[C@@H](NC(=O)[C@H](CCC(=O)O)NC(=O)[C@H](CCC(=O)O)NC(=O)[C@H](CC(=O)O)NC(=O)[C@@H](NC(=O)[C@H](Cc1ccccc1)NC(C)=O)[C@@H](C)CC)C(C)C)C(=O)N[C@@]1(C)CCCC=CCCC[C@@](C)(C(=O)N[C@@H](CCCC)C(=O)N[C@@H](C)C(=O)N[C@@H](CCC(=O)O)C(=O)N[C@@H](CC(=O)O)C(=O)N[C@@H](CCCNC(=N)N)C(=O)N[C@H](C(N)=O)[C@@H](C)CC)NC(=O)[C@H]([C@@H](C)CC)NC(=O)[C@H](C(C)C)NC(=O)[C@H](CC(C)C)NC1=O` [SP-40] (Ac-FIDEEVL[Nle][S5]LVI[S5][Nle]AEDRI-NH2; staple 9-13), the “18 h Avg % max inhibition at top conc” value is recorded as “+ (<10: +)” and the EC50 is more than 30 µM.

Take `CCCC[C@H](NC(=O)[C@H](CC(C)C)NC(=O)[C@@H](NC(=O)[C@H](CCC(=O)O)NC(=O)[C@H](CCC(=O)O)NC(=O)[C@H](CC(=O)O)NC(=O)[C@@H](NC(=O)[C@H](Cc1ccccc1)NC(C)=O)[C@@H](C)CC)C(C)C)C(=O)N[C@@]1(C)CCCC=CCCC[C@@](C)(C(=O)N[C@@H](CCCC)C(=O)N[C@@H](C)C(=O)N[C@@H](CC(C)C)C(=O)N[C@@H](CC(=O)O)C(=O)N[C@@H](CCCNC(=N)N)C(=O)N[C@H](C(=O)N[C@@H](CCC(=O)O)C(N)=O)[C@@H](C)CC)NC(=O)[C@H]([C@@H](C)CC)NC(=O)[C@H](C(C)C)NC(=O)[C@H](CC(C)C)NC1=O` [SP-43] (Ac-FIDEEVL[Nle][S5]LVI[S5][Nle]ALDRIE-NH2; staple 9-13): the “18 h Avg % max inhibition at top conc” value is on record as “+++ (≤25 but <50: +++)” and the EC50 is more than 30 µM.

For the molecule `CCCC[C@H](NC(=O)[C@H](CC(C)C)NC(=O)[C@@H](NC(=O)[C@H](CCC(=O)O)NC(=O)[C@H](CCC(=O)O)NC(=O)[C@H](CC(=O)O)NC(=O)[C@@H](NC(=O)[C@H](CN)NC(C)=O)[C@@H](C)CC)C(C)C)C(=O)N[C@@]1(C)CCCC=CCCC[C@@](C)(C(=O)N[C@@H](CCCC)C(=O)N[C@@H](C)C(=O)N[C@@H](CC(C)C)C(=O)N[C@@H](CC(=O)O)C(=O)N[C@@H](CCCNC(=N)N)C(=O)N[C@H](C(N)=O)[C@@H](C)CC)NC(=O)[C@H]([C@@H](C)CC)NC(=O)[C@H](C(C)C)NC(=O)[C@H](CC(C)C)NC1=O` [SP-61] (Ac-[Dap]IDEEVL[Nle][S5]LVI[S5][Nle]ALDRI-NH2; staple 9-13), the “18 h Avg % max inhibition at top conc” value is recorded as “+ (<10: +)” and the EC50 was more than 30 µM.

Turning to `CCCC[C@H](NC(=O)[C@H](CC(C)C)NC(=O)[C@@H](NC(=O)[C@H](CCC(=O)O)NC(=O)[C@H](CCC(=O)O)NC(=O)[C@H](CC(=O)O)NC(=O)[C@@H](NC(=O)[C@H](Cc1ccccc1)NC(C)=O)[C@@H](C)CC)C(C)C)C(=O)N[C@@]1(C)CCCC=CCCC[C@@](C)(C(=O)N[C@@H](C)C(=O)N[C@@H](C)C(=O)N[C@@H](CC(C)C)C(=O)N[C@@H](CC(=O)O)C(=O)N[C@@H](CCCNC(=N)N)C(=O)N[C@H](C(N)=O)[C@@H](C)CC)NC(=O)[C@H]([C@@H](C)CC)NC(=O)[C@H](C(C)C)NC(=O)[C@H](CC(C)C)NC1=O` [SP-20] (Ac-FIDEEVL[Nle][S5]LVI[S5]AALDRI-NH2; staple 9-13), the “18 h Avg % max inhibition at top conc” value is “++++ (≥50: ++++)” and the EC50 was 5 to 15 µM.

As for `CCCC[C@H](NC(=O)[C@H](CC(C)C)NC(=O)[C@@H](NC(=O)[C@H](CCC(=O)O)NC(=O)[C@H](CCC(=O)O)NC(=O)[C@H](CC(=O)O)NC(=O)[C@@H](NC(=O)[C@H](Cc1ccccc1)NC(C)=O)[C@@H](C)CC)C(C)C)C(=O)N[C@@]1(C)CCCC=CCCC[C@@](C)(C(=O)N[C@@H](CCCC)C(=O)N[C@@H](C)C(=O)N[C@@H](CC(C)C)C(=O)N[C@@H](CC(=O)O)C(=O)N[C@@H](CCCNC(=N)N)C(=O)N[C@H](C(N)=O)[C@@H](C)CC)NC(=O)[C@H](C)NC(=O)[C@H](C(C)C)NC(=O)[C@H](CC(C)C)NC1=O` [SP-19] (Ac-FIDEEVL[Nle][S5]LVA[S5][Nle]ALDRI-NH2; staple 9-13), the “18 h Avg % max inhibition at top conc” value is “+++ (≤25 but <50: +++)” and the EC50 is 5 to 15 µM.
